Patent US20250042912A1, “NOVEL NON-FLUORINATED QUINOLONE COMPOUND AND USE THEREOF” (priority 2021, published 2025)
In brackets after ≈: the same amount, converted by molar mass.

Columns and labels:
[1] = system: Propionibacterium acnes ATCC 11827; assay: Minimum inhibitory concentration (MIC) assay, Propionibacterium acnes ATCC 11827; format: cell-based; details: Cutibacterium acnes, ATCC11827; anaerobic culture 35+/-2°C, 48 hours; read with naked eyes
Method: On the day of the experiment, the compound in the flask was dissolved in 100% DMSO until the concentration of mother liquor was 0.4 mg/mL. If the mother liquor was not used on the same day, it was stored at −80° C. for future use. The compound mother liquor and standard antibiotics were subjected to 2-fold gradient dilution with corresponding solvents on a 96-microwell plate (V-bottom) to obtain 100× working solutions (Well 1 to Well 7) in sequence. Among them, the concentrations of the compound were 400 μg/mL, 200 μg/mL, 100 μg/mL, 50 μg/mL, 25 μg/mL, 12.5 μg/mL, 6.25 μg/mL, and 3.125 μg/mL. 100% DMSO was used as growth control (Well 8). As such, the compound motherplate was obtained. Two days before the experiment, anaerobic bacteria (Propionibacterium acnes) stored in a cryogenic tube at −80° C. were scribed on an MBA (Brucella Agar+5% (v/v) defibrillated sheep blood+[…] Hemin+1 μg/mLVitamin K1) plate. The anaerobic bacteria were placed in a 35+/−2° C. anaerobic incubator for 42-48 hours of cultivation. On the day of the experiment, the plate was taken out, clones were picked from the plate and suspended in physiological saline. Then, the turbidity of the bacterial suspension (containing 1.0-2.0×10^8 CFU/mL) was adjusted to OD600=0.2 by a turbidity meter. Then, the adjusted bacterial suspension was diluted to an appropriate concentration with the assay culture medium: about 5×10^5 CFU/mL for aerobic bacteria, and about 1×10^6 CFU/mL for anaerobic bacteria. As such, the inoculating solution was obtained. […] Therefore, the final assay concentrations of the compound were 4 μg/mL, 2 μg/mL, 1 μg/mL, 0.5 μg/mL, 0.25 μg/mL, 0.125 μg/mL, 0.06 μg/mL and 0.03 μg/mL. The total volume of each well on the assay plate was 200 μL: containing 1% DMSO, about 5×10^5 CFU/mL of aerobic bacteria and about 1×10^6 CFU/mL of anaerobic bacteria. All assay plates for aerobic bacteria were aerobically cultured at 35+/−2° C. for 16 to 20 hours, and all assay plates for anaerobic bacteria were anaerobically cultured in an anaerobic incubator at 35+/−2° C. for 48 hours. Note: for anaerobic bacteria, both the preparation of bacterial solution in step 2 and the inoculation of bacterial solution in step 3 were operated in an anaerobic workstation.

[2] = system: Propionibacterium acnes ATCC 6919; assay: Acne model in mice: ear bacterial load; format: in vivo
Method: Experimental strain: Propionibacterium acnes ATCC 6919 (Beijing Biobw Biotechnology Co., Ltd.) Experimental animals: Balb/C mice (Zhejiang Vital River Laboratory Animal Technology Co., Ltd.) Balb/C mice were grouped and numbered, and adaptively fed for one week. On the day of modeling, Propionibacterium acnes was taken, and OD600 was measured using a microplate reader. BH1 culture medium was diluted to OD600=1 (about 5×10^8 CFU/mL), centrifuged to discard supernatant, and the remaining culture was diluted to 1×10^8 CFU/mL with PBS. Once the molding began, the mice were anesthetized with a small animal anesthesia machine, the air flow and isoflurane content of the anesthesia machine were adjusted, and the mice were placed in an anesthesia induction chamber for anesthesia induction. After there were no obvious signs of activity, the mice were taken out and their toes were clamped with tweezers or hemostatic forceps for toe pinching reaction testing, if there was no retraction pain response, the surgery could be performed. The anesthetized mice were placed on a mice plate and fixed, the air flow or isoflurane content was adjusted to maintain anesthesia (isoflurane anesthesia induction content of 3% to 4%, anesthesia maintenance content of 1% to 2%, and air flow rate of 300 mL/min to 500 mL/min). […]

MIC [1]: 0.03 µg/mL (≈ 0.0766 µM)
Compound: CN(C)c1cc2c(cn1)-c1ccc3c(=O)c(C(=O)O)cn(C4CC4)c3c1COC2 [Compound 6]
Ear bacterial load Log10 CFU/Ear Mean ± SD ([2]; Balb/C mice, left ear homogenate, 48 hours after injection of Propionibacterium acnes, 15 μL applied at 4, 20, 28, 44 hours, drugs as hydrochloride): 5.53 ± 0.10 Log10 CFU/Ear
bacterial loads in the left ears of mice after treatment ([2]; compared with acne model group, p<0.001, in words): significantly decreased
